Literature values, collected in patent US7625920B2, “Fluorinated 4-azasteroid derivatives as androgen receptor modulators” (priority 2003, dated 2009).

Key:
[1] = after 7 years of treatment
[2] = median of 22 months of treatment

For `NCCCC(O)(P(=O)([O-])O)P(=O)(O)O.O.O.O.[Na+]` [alendronate, (4-amino-1-hydroxybutylidene)-bis-phosphonate monosodium trihydrate], the “increase in spinal BMD” value [1] is given as 11%.

In the case of “hPTH(1-34): human parathyroid hormone 1-34 fragment (SVSEIQLMHNLGKHLNSMERVEWLRKKLQDVHNF; Parathyroid hormone; UniProt P01270 32-65, looked up, fragment)”, the “reduction in nonvertebral fractures” value [2] is given as 54% and the “reduction in spine fractures” value [2] is given as no less than 65%.
